Measured values taken from patent publication US7704979B2, “Materials and methods for the treatment or prevention of obesity” (The University of Tennessee Research Foundation, priority 2000, dated 2010).

Tests used:
human adipocytes [1] = assay: FAS mRNA expression in human adipocytes, Northern blot (Example 4); format: cell-based
Procedure: A human adipocyte cell line and primary-cultured human adipocytes were both used as cell models in this study. The human adipocyte cell line was differentiated from human preadipocytes obtained from Zen-Bio Inc. (Research Triangle Park, N.C.). Human preadipocytes were inoculated in Dulbecco's Modified Eagle' Medium (DMEM)/Ham' F-10 medium (F-10) (1:1, v/v) containing 10% fetal bovine serum (FBS), 15mM Hepes and antibiotics at a density of 30,000 cells/cm^2. Confluent monolayers of preadipocytes were induced to differentiate with a standard differentiation medium consisting of DMEM/F-10 (1:1, v/v) medium supplemented with 15 mM Hepes, 3% FBS, 33 μM biotin, 17 μM pantothenate, 100 nM insulin, 0.25 mM methylisobutylxanthine (MIX), 1 μM dexamethasome, 1 μM BRL49653 and antibiotics. Preadipocytes were maintained in this differentiation medium for 3 days and subsequently cultured in adipocyte medium in which BRL49653 and MIX were withdrawn. Cultures were re-fed every 2-3 days (Shi, H., et al., “Role of intracellular calcium in human adipocyte differentiation,” Phyisol. Genomics. (2000) pp. 75-82, vol. 3.). Primary-cultured human adipocytes were derived from human subcutaneous adipose tissue obtained from patients undergoing abdominal plastic surgery with no known history of metabolic disorders. This protocol was approved by the Institutional Review Board for Human Subjects and the Committee for Research Participation of the University of Tennessee. Adipocytes were isolated according to the teachings of (Shi, H., et al., “Role of the sulfonylurea receptor in regulating human adipocyte metabolism,” FASEB. J. (1999) pp. 1833-38, vol. 13.). Briefly, adipose tissue was first washed several times with Hank's Balanced Salt Solution, minced into small pieces and digested with 1 mg/ml type1 collagenase in a shaking water bath at 37° C. for 30 min. […] ZERO-Dscan software (Scanalytics, Inc, Fairfax, Va.) was used to quantitatively analyze these images.

human adipocytes [2] = assay: Human adipocyte [Ca2+]i, fura-2 imaging (Example 4); format: cell-based
human adipocytes [3] = assay: FAS activity in human adipocytes (Example 4); format: cell-based
Procedure: A human adipocyte cell line and primary-cultured human adipocytes were both used as cell models in this study. The human adipocyte cell line was differentiated from human preadipocytes obtained from Zen-Bio Inc. (Research Triangle Park, N.C.). Human preadipocytes were inoculated in Dulbecco's Modified Eagle' Medium (DMEM)/Ham' F-10 medium (F-10) (1:1, v/v) containing 10% fetal bovine serum (FBS), 15mM Hepes and antibiotics at a density of 30,000 cells/cm^2. Confluent monolayers of preadipocytes were induced to differentiate with a standard differentiation medium consisting of DMEM/F-10 (1:1, v/v) medium supplemented with 15 mM Hepes, 3% FBS, 33 μM biotin, 17 μM pantothenate, 100 nM insulin, 0.25 mM methylisobutylxanthine (MIX), 1 μM dexamethasome, 1 μM BRL49653 and antibiotics. Preadipocytes were maintained in this differentiation medium for 3 days and subsequently cultured in adipocyte medium in which BRL49653 and MIX were withdrawn. Cultures were re-fed every 2-3 days (Shi, H., et al., “Role of intracellular calcium in human adipocyte differentiation,” Phyisol. Genomics. (2000) pp. 75-82, vol. 3.). Primary-cultured human adipocytes were derived from human subcutaneous adipose tissue obtained from patients undergoing abdominal plastic surgery with no known history of metabolic disorders. This protocol was approved by the Institutional Review Board for Human Subjects and the Committee for Research Participation of the University of Tennessee. Adipocytes were isolated according to the teachings of (Shi, H., et al., “Role of the sulfonylurea receptor in regulating human adipocyte metabolism,” FASEB. J. (1999) pp. 1833-38, vol. 13.). […] FAS and GPDH activity was determined spectrophotometrically in crude cytosolic extracts of human adipocytes as previously described (Shi, H., et al., “Role of the sulfonylurea receptor in regulating human adipocyte metabolism,” FASEB. J. (1999) pp. 1833-38, vol. 13). […]

human adipocytes [4] = assay: GPDH activity in human adipocytes (Example 4); format: cell-based
Procedure: A human adipocyte cell line and primary-cultured human adipocytes were both used as cell models in this study. The human adipocyte cell line was differentiated from human preadipocytes obtained from Zen-Bio Inc. (Research Triangle Park, N.C.). Human preadipocytes were inoculated in Dulbecco's Modified Eagle' Medium (DMEM)/Ham' F-10 medium (F-10) (1:1, v/v) containing 10% fetal bovine serum (FBS), 15mM Hepes and antibiotics at a density of 30,000 cells/cm^2. Confluent monolayers of preadipocytes were induced to differentiate with a standard differentiation medium consisting of DMEM/F-10 (1:1, v/v) medium supplemented with 15 mM Hepes, 3% FBS, 33 μM biotin, 17 μM pantothenate, 100 nM insulin, 0.25 mM methylisobutylxanthine (MIX), 1 μM dexamethasome, 1 μM BRL49653 and antibiotics. Preadipocytes were maintained in this differentiation medium for 3 days and subsequently cultured in adipocyte medium in which BRL49653 and MIX were withdrawn. Cultures were re-fed every 2-3 days (Shi, H., et al., “Role of intracellular calcium in human adipocyte differentiation,” Phyisol. Genomics. (2000) pp. 75-82, vol. 3.). Primary-cultured human adipocytes were derived from human subcutaneous adipose tissue obtained from patients undergoing abdominal plastic surgery with no known history of metabolic disorders. This protocol was approved by the Institutional Review Board for Human Subjects and the Committee for Research Participation of the University of Tennessee. Adipocytes were isolated according to the teachings of (Shi, H., et al., “Role of the sulfonylurea receptor in regulating human adipocyte metabolism,” FASEB. J. (1999) pp. 1833-38, vol. 13.). Briefly, adipose tissue was first washed several times with Hank's Balanced Salt Solution, minced into small pieces and digested with 1 mg/ml type1 collagenase in a shaking water bath at 37° C. for 30 min. Adipocytes were then filtered through a sterile 500 μm nylon mesh and cultured in Dulbecco's Modified Eagle's Medium (DMEM) supplemented with 1% fetal bovine serum (FBS), 100 UI/ml penicillin, 100 μg/ml streptomycin and 50 μg/ml gentamicin. Cells were cultured in suspension and maintained in a thin layer at the top of culture media, which were changed every day. Cells were maintained viable and metabolically responsive under this culture condition for 7 days. FAS and GPDH activity was determined spectrophotometrically in crude cytosolic extracts of human adipocytes as previously described (Shi, H., et al., “Role of the sulfonylurea receptor in regulating human adipocyte metabolism,” FASEB. J. (1999) pp. 1833-38, vol. 13). Human adipocytes were homogenized in 250 mmol/L sucrose solution containing 1 mmol/L ethylenediamine-tetraacticacid (EDTA), 1 mmol/L dithiothreitol (DTT), and 100 μmol/L phenylmethylsulfonyl fluoride (PMSF) (pH 7.4). […]

human adipocytes [5] = assay: Isoproterenol-stimulated lipolysis in human adipocytes (Example 4); format: cell-based
Procedure: (§1) A human adipocyte cell line and primary-cultured human adipocytes were both used as cell models in this study. The human adipocyte cell line was differentiated from human preadipocytes obtained from Zen-Bio Inc. (Research Triangle Park, N.C.). Human preadipocytes were inoculated in Dulbecco's Modified Eagle' Medium (DMEM)/Ham' F-10 medium (F-10) (1:1, v/v) containing 10% fetal bovine serum (FBS), 15mM Hepes and antibiotics at a density of 30,000 cells/cm^2. Confluent monolayers of preadipocytes were induced to differentiate with a standard differentiation medium consisting of DMEM/F-10 (1:1, v/v) medium supplemented with 15 mM Hepes, 3% FBS, 33 μM biotin, 17 μM pantothenate, 100 nM insulin, 0.25 mM methylisobutylxanthine (MIX), 1 μM dexamethasome, 1 μM BRL49653 and antibiotics. Preadipocytes were maintained in this differentiation medium for 3 days and subsequently cultured in adipocyte medium in which BRL49653 and MIX were withdrawn. Cultures were re-fed every 2-3 days (Shi, H., et al., “Role of intracellular calcium in human adipocyte differentiation,” Phyisol. Genomics. (2000) pp. 75-82, vol. 3.). Primary-cultured human adipocytes were derived from human subcutaneous adipose tissue obtained from patients undergoing abdominal plastic surgery with no known history of metabolic disorders. […]

nVDR = conditions: cited from earlier work
human adipocytes [6] = assay: Basal lipolysis (glycerol release) in human adipocytes (Example 4); format: cell-based
Procedure: as §1

human adipocytes [7] = assay: Forskolin-stimulated lipolysis (glycerol release) in human adipocytes; format: cell-based; conditions: data not shown
human adipocytes [8] = assay: Intracellular Ca2+ in primary cultures of human adipocytes (fura-2 fluorometry); format: cell-based; conditions: read-out: EC50 for increase in intracellular Ca2+
Procedure: Human subcutaneous adipose tissue was obtained from patients with no known history of metabolic disorders undergoing abdominal plastic surgery. Adipocytes were isolated by washing, mincing, collagenase digestion, and filtration as described previously and cultured in Dulbecco's modified Eagle's medium supplemented with 1% fetal bovine serum, penicillin (100 IU/ml), streptomycin (100 μg/ml), and gentamicin (50 μg/ml). Cells were cultured in suspension and maintained in a thin layer at the top of the culture media, which was changed every day. Cells were studied about 72 hours after isolation and were serum-starved prior to study.
Intracellular Ca^2+ was determined fluorometrically as described previously. Cells were washed with HEPES-buffered salt solution loaded with fura-2-acetoxymethyl ester (10 μM) for 45 minutes at 37° C. in the dark with continuous shaking. Cells were then rinsed three times, resuspended, and intracellular Ca^2+ was measured using dual excitation (340 and 380 nm)/single emission (510 nm) fluorometry. After the establishment of a stable baseline, the response to 1,25-(OH)2-D or parathyroid hormone (10 pM-100 nM) or their respective vehicles was determined. Digitonin (25 μM) and Tris/EGTA (100 mM, pH 8.7) were used to for calibration to calculate the final intracellular Ca^2+.

## C=C1/C(=C\C=C2/CCC[C@]3(C)[C@@H]([C@H](C)CCCC(C)(C)O)CC[C@@H]23)C[C@@H](O)C[C@@H]1O [1α,25-(OH)2-D3, 1α,25-Dihydroxyvitamin D3]
Human adipocytes [1]
  increase in FAS mRNA expression: 2 fold
Human adipocytes [2]
  [Ca2+]i response in human adipocytes: significant increase of [Ca^2+]i in human adipocyte in a dose-dependent manner
Human adipocytes [3]; 5 nM, over 48 hrs
  increase in adipocyte FAS activity: 40%
Human adipocytes [4]; 5 nM
  increase in human adipocyte GPDH activity: 50%

## C[C@H](CCCC(C)(C)O)[C@H]1CC[C@H]2C3=CC=C4C[C@@H](O)C[C@H](O)[C@@]4(C)[C@@H]3CC[C@]12C [1α,25-(OH)2-lumisterol3, 1α,25-dihydroxylumisterol3]
Human adipocytes [1]
  increase in FAS mRNA expression: 2.5 fold
Human adipocytes [2]
  [Ca2+]i response in human adipocytes: marked dose-responsive increases
Human adipocytes [5]
  inhibition of isoproterenol-stimulated lipolysis: 53%
Human adipocytes [3]; human adipocytes
  increase in FAS activity: 2.5 fold
nVDR
  binding affinity to nVDR: low binding affinity
Human adipocytes [4]; human adipocytes
  stimulation of GPDH activity: 2.8 fold
Human adipocytes [6]
  inhibition of adipocyte basal lipolysis: 50%

## C=C1/C(=C\C=C2/CCC[C@]3(C)[C@@H]([C@H](C)CCCC(C)(C)O)CC[C@@H]23)C[C@@H](O)C[C@H]1O [1β,25-(OH)2-D3, 1β,25-dihydroxyvitamin D3]
Human adipocytes [1]
  effect on stimulation of FAS mRNA expression: completely blocked
Human adipocytes [2]; pre-treatment of human adipocytes
  effect of pre-treatment on 1α,25-(OH)2-lumisterol3-induced increases in [Ca2+]i: completely prevented
Human adipocytes [3]; pretreatment of human adipocytes
  effect of pretreatment on stimulation of FAS activity: completely prevented
nVDR
  effects on nVDR: no effects
Human adipocytes [4]; human adipocytes
  effect on 1α,25-(OH)2-D3 stimulated GPDH activity: little effect
  effect on 1α,25-(OH)2-lumisterol3 stimulated GPDH activity: markedly inhibited

## CC(C)NCC(O)c1ccc(O)c(O)c1 (centres unmarked) [isoproterenol]
Human adipocytes [5]
  increase in lipolysis: 3.2 fold

## parathyroid hormone [PTH]
Human adipocytes [7]
  effect on lipolysis: little effect
Human adipocytes [8]
  EC50: ~10 nM
